Results: the NIST ThermoML archive (doi:10.1016/j.jct.2014.10.007)
Values joined by “and” are separate entries in the source; they are usually repeats but may differ in a detail not shown here. Identical values can stand only once. Numbers after ± are expanded uncertainties.

Experiment: molar heat capacity at constant pressure; xn = mol fraction of the nth substance listed
Conditions: 1 kPa, Liquid, Small sample (50 mg) DSC

[Ca+2].[F-].[F-] [calcium fluoride] + [F-].[Li+]
Conditions | molar heat capacity at constant pressure
1255 K, x1 = 0.25 | 98.98 ± 10 J/K/mol
1255.2 K, x1 = 0.125 | 70.22 ± 7.2 J/K/mol
1255.2 K, x1 = 0.375 | 113.91 ± 12 J/K/mol
1274.7 K, x1 = 0.25 | 102.2 ± 10 J/K/mol
1275 K, x1 = 0.375 | 118.44 ± 12 J/K/mol
1275.1 K, x1 = 0.125 | 82.4 ± 8.3 J/K/mol
1294.9 K, x1 = 0.25 | 103.71 ± 10 J/K/mol
1294.9 K, x1 = 0.375 | 121.83 ± 12 J/K/mol
1305.1 K, x1 = 0.125 | 80.92 ± 8.2 J/K/mol
1314.9 K, x1 = 0.25 | 96.32 ± 9.7 J/K/mol
1315.2 K, x1 = 0.375 | 118.21 ± 12 J/K/mol
1325.3 K, x1 = 0.125 | 79.47 ± 8 J/K/mol
1334.9 K, x1 = 0.5 | 133.92 ± 14 J/K/mol and 120.41 ± 12 J/K/mol
1335.2 K, x1 = 0.25 | 98.52 ± 9.9 J/K/mol
1335.2 K, x1 = 0.375 | 115.41 ± 12 J/K/mol
1345.4 K, x1 = 0.125 | 83.81 ± 8.5 J/K/mol
1354.9 K, x1 = 0.5 | 125.69 ± 13 J/K/mol and 133.39 ± 13 J/K/mol
1355.4 K, x1 = 0.125 | 82.43 ± 8.3 J/K/mol
1355.5 K, x1 = 0.375 | 116.94 ± 12 J/K/mol
1355.6 K, x1 = 0.25 | 98.96 ± 10 J/K/mol
1375.4 K, x1 = 0.5 | 130.29 ± 13 J/K/mol and 135.8 ± 14 J/K/mol
1375.5 K, x1 = 0.375 | 117.98 ± 12 J/K/mol
1375.7 K, x1 = 0.125 | 75.1 ± 7.6 J/K/mol
1375.7 K, x1 = 0.25 | 95.16 ± 9.6 J/K/mol
1395.9 K, x1 = 0.5 | 132.9 ± 13 J/K/mol and 134.28 ± 14 J/K/mol
1396 K, x1 = 0.125 | 81.03 ± 8.2 J/K/mol
1396.1 K, x1 = 0.25 | 106.8 ± 11 J/K/mol
1396.2 K, x1 = 0.375 | 111.04 ± 11 J/K/mol
1415.9 K, x1 = 0.5 | 130.4 ± 13 J/K/mol and 137.28 ± 14 J/K/mol
1416 K, x1 = 0.125 | 75.28 ± 7.6 J/K/mol
1416.1 K, x1 = 0.25 | 101.47 ± 10 J/K/mol
1416.1 K, x1 = 0.375 | 112.61 ± 11 J/K/mol
1436.2 K, x1 = 0.125 | 76.95 ± 7.8 J/K/mol
1436.2 K, x1 = 0.5 | 135.89 ± 14 J/K/mol and 130.39 ± 13 J/K/mol
1436.3 K, x1 = 0.375 | 112.16 ± 11 J/K/mol
1436.4 K, x1 = 0.25 | 102.59 ± 10 J/K/mol
1456.5 K, x1 = 0.375 | 120.54 ± 12 J/K/mol
1456.5 K, x1 = 0.5 | 134.58 ± 14 J/K/mol and 132.82 ± 13 J/K/mol
1456.6 K, x1 = 0.125 | 77.21 ± 7.8 J/K/mol
1456.8 K, x1 = 0.25 | 102.41 ± 10 J/K/mol
1476.7 K, x1 = 0.5 | 147.97 ± 15 J/K/mol and 127.49 ± 13 J/K/mol
1476.8 K, x1 = 0.125 | 83.38 ± 8.4 J/K/mol
1476.9 K, x1 = 0.375 | 111.58 ± 11 J/K/mol
1477 K, x1 = 0.25 | 101.6 ± 10 J/K/mol
1497.1 K, x1 = 0.125 | 90.8 ± 9.2 J/K/mol
1497.1 K, x1 = 0.375 | 123.99 ± 13 J/K/mol
1497.1 K, x1 = 0.5 | 143.74 ± 15 J/K/mol and 127.89 ± 13 J/K/mol
1497.2 K, x1 = 0.25 | 101.05 ± 10 J/K/mol
1517.3 K, x1 = 0.125 | 97.18 ± 9.8 J/K/mol
1517.4 K, x1 = 0.5 | 142.13 ± 14 J/K/mol and 123.38 ± 13 J/K/mol
1517.5 K, x1 = 0.375 | 109.29 ± 11 J/K/mol
1517.6 K, x1 = 0.25 | 104.18 ± 11 J/K/mol
